# Experimental data: ChEMBL document CHEMBL1201862, “PubChem BioAssay data set” (2004)
#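 48-hour exposure; five concentrations; linearly interpolated endpoints. Here, GI50 denotes the concentration required for 50% inhibition of growth.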 The source made the active and inactive calls. Rule as the data show it: active = GI50 up to about 1.1 µM and inactive = higher.
# Assays:
# Assay in all cases: growth of human tumour cells (NCI), 48 h
# EKVX = test system: EKVX
# SF-268 = test system: SF-268
# HCT-116 = test system: HCT-116
# M14 = test system: M14
# BT-549 = test system: BT-549
# NCI/ADR-RES = test system: NCI/ADR-RES
# ACHN = test system: ACHN
# K562 = test system: K562
# HOP-62 = test system: HOP-62
# COLO 205 = test system: COLO 205
# SK-MEL-28 = test system: SK-MEL-28
# HT-29 = test system: HT-29
# OVCAR-3 = test system: OVCAR-3
# SK-MEL-5 = test system: SK-MEL-5
# LOX IMVI = test system: LOX IMVI
# TK-10 = test system: TK-10
# RPMI-8226 = test system: RPMI-8226
# SR = test system: SR
# NCI-H226 = test system: NCI-H226
# SW-620 = test system: SW-620
# CAKI-1 = test system: CAKI-1
# 786-0 = test system: 786-0
# PC-3 = test system: PC-3
# SK-MEL-2 = test system: SK-MEL-2
# SF-295 = test system: SF-295
# RXF 393 = test system: RXF 393
# T47D = test system: T47D
# KM12 = test system: KM12
# NCI-H522 = test system: NCI-H522
# U-251 = test system: U-251
# OVCAR-4 = test system: OVCAR-4
# SNB-19 = test system: SNB-19
# MDA-N = test system: MDA-N
# CCRF-CEM = test system: CCRF-CEM
# DU-145 = test system: DU-145
# UACC-62 = test system: UACC-62
# HOP-92 = test system: HOP-92
# MCF7 = test system: MCF7
# OVCAR-8 = test system: OVCAR-8
# MDA-MB-435 = test system: MDA-MB-435
# NCI-H460 = test system: NCI-H460
# MOLT-4 = test system: MOLT-4
# SK-OV-3 = test system: SK-OV-3
# Malme-3M = test system: Malme-3M
# A549 = test system: A549
# SNB-75 = test system: SNB-75
# UO-31 = test system: UO-31
# Hs-578T = test system: Hs-578T
# HCT-15 = test system: HCT-15
# HL-60 = test system: HL-60
# UACC-257 = test system: UACC-257
# IGROV-1 = test system: IGROV-1
# MDA-MB-231 = test system: MDA-MB-231
# HCC 2998 = test system: HCC 2998
# SF-539 = test system: SF-539
# NCI-H23 = test system: NCI-H23
# OVCAR-5 = test system: OVCAR-5
# SN12C = test system: SN12C
# A498 = test system: A498
smiles,measurement,setting,value
Cc1nn2c(=O)c([N+](=O)[O-])c(/C=C/c3ccccc3)nc2s1,GI50,EKVX,4.61 µM (inactive)
same,GI50,SF-268,3.92 µM (inactive)
same,GI50,HCT-116,3.42 µM (inactive)
same,GI50,M14,6.81 µM (inactive)
same,GI50,BT-549,2.37 µM (inactive)
same,GI50,NCI/ADR-RES,3.56 µM (inactive)
same,GI50,ACHN,5.32 µM (inactive)
same,GI50,K562,2.56 µM (inactive)
same,GI50,HOP-62,5.43 µM (inactive)
same,GI50,COLO 205,5.14 µM (inactive)
same,GI50,SK-MEL-28,5.33 µM (inactive)
same,GI50,HT-29,3.04 µM (inactive)
same,GI50,OVCAR-3,4.95 µM (inactive)
same,GI50,SK-MEL-5,3.69 µM (inactive)
same,GI50,LOX IMVI,1.57 µM (inactive)
same,GI50,TK-10,7.31 µM (inactive)
same,GI50,RPMI-8226,2.43 µM (inactive)
same,GI50,SR,2.43 µM (inactive)
same,GI50,NCI-H226,3.07 µM (inactive)
same,GI50,SW-620,5.24 µM (inactive)
same,GI50,CAKI-1,7.78 µM (inactive)
same,GI50,786-0,4.52 µM (inactive)
same,GI50,PC-3,4.13 µM (inactive)
same,GI50,SK-MEL-2,3.1 µM (inactive)
same,GI50,SF-295,17.3 µM (inactive)
same,GI50,RXF 393,3.41 µM (inactive)
same,GI50,T47D,3.72 µM (inactive)
same,GI50,KM12,3.13 µM (inactive)
same,GI50,NCI-H522,3.3 µM (inactive)
same,GI50,U-251,2.42 µM (inactive)
same,GI50,OVCAR-4,10.5 µM (inactive)
same,GI50,SNB-19,4.06 µM (inactive)
same,GI50,MDA-N,2.4 µM (inactive)
same,GI50,CCRF-CEM,2.21 µM (inactive)
same,GI50,DU-145,3.74 µM (inactive)
same,GI50,UACC-62,5.33 µM (inactive)
same,GI50,HOP-92,8.28 µM (inactive)
same,GI50,MCF7,1.61 µM (inactive)
same,GI50,OVCAR-8,2.17 µM (inactive)
same,GI50,MDA-MB-435,2 µM (inactive)
same,GI50,NCI-H460,5.61 µM (inactive)
same,GI50,MOLT-4,2.98 µM (inactive)
same,GI50,SK-OV-3,7.33 µM (inactive)
same,GI50,Malme-3M,13.3 µM (inactive)
same,GI50,A549,5.46 µM (inactive)
same,GI50,SNB-75,2.93 µM (inactive)
same,GI50,UO-31,5.83 µM (inactive)
same,GI50,Hs-578T,7.33 µM (inactive)
same,GI50,HCT-15,3.08 µM
same,GI50,HL-60,2.28 µM (inactive)
same,GI50,UACC-257,8.57 µM (inactive)
same,GI50,IGROV-1,5.51 µM (inactive)
same,GI50,MDA-MB-231,11.5 µM (inactive)
same,GI50,HCC 2998,8.13 µM (inactive)
same,GI50,SF-539,2.3 µM (inactive)
same,GI50,NCI-H23,11 µM (inactive)
same,GI50,OVCAR-5,4.68 µM (inactive)
same,GI50,SN12C,5.27 µM (inactive)
same,GI50,A498,10.4 µM (inactive)
